Data taken from patent publication US9682141B2, “Combination of kinase inhibitors and uses thereof” (INTELLIKINE LLC, priority 2011, dated 2017).
pIC50: −log10 of the molar value.

Columns and labels:
Assay type in all cases: biochemical
PI3K α = PI3K α (Homo sapiens (Human), UniProt P42336); experiment: PI 3-Kinase (human) HTRF assay, p110α/p85α
PI3K β = PI3K β (Homo sapiens (Human), UniProt P42338); experiment: PI 3-Kinase (human) HTRF assay, p110β/p85α
PI3K δ = PI3K δ (Homo sapiens (Human), UniProt O00329); experiment: PI 3-Kinase (human) HTRF assay, p110δ/p85α
PI3K δ, sequence (O00329 whole entry): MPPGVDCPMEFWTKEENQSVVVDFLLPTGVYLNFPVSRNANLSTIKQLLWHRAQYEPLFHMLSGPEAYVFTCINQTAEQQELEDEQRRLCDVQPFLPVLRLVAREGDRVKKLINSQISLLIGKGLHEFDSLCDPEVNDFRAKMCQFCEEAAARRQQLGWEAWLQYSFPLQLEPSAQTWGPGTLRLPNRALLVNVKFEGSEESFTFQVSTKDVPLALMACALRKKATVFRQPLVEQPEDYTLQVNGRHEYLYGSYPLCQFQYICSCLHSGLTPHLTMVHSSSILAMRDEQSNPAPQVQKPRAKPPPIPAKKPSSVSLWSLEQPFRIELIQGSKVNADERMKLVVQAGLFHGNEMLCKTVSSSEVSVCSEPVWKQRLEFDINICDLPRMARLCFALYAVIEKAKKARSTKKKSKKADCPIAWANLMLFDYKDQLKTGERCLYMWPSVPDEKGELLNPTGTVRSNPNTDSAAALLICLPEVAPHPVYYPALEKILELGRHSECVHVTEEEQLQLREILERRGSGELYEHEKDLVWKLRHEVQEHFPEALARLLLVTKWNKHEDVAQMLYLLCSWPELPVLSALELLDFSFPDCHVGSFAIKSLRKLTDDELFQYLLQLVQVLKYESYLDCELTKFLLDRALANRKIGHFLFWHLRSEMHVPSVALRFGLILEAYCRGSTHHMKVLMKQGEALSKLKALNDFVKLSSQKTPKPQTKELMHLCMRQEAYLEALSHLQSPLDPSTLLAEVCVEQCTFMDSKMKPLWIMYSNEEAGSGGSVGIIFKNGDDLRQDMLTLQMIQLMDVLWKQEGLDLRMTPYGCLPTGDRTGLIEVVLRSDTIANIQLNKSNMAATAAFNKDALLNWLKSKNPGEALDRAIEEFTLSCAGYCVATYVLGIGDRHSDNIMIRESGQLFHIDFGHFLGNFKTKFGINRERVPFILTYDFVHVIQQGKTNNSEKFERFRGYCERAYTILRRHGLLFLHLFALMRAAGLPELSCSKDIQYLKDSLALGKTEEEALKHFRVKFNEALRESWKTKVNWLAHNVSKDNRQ
PI3K δ, sequence (P27986 whole entry partner): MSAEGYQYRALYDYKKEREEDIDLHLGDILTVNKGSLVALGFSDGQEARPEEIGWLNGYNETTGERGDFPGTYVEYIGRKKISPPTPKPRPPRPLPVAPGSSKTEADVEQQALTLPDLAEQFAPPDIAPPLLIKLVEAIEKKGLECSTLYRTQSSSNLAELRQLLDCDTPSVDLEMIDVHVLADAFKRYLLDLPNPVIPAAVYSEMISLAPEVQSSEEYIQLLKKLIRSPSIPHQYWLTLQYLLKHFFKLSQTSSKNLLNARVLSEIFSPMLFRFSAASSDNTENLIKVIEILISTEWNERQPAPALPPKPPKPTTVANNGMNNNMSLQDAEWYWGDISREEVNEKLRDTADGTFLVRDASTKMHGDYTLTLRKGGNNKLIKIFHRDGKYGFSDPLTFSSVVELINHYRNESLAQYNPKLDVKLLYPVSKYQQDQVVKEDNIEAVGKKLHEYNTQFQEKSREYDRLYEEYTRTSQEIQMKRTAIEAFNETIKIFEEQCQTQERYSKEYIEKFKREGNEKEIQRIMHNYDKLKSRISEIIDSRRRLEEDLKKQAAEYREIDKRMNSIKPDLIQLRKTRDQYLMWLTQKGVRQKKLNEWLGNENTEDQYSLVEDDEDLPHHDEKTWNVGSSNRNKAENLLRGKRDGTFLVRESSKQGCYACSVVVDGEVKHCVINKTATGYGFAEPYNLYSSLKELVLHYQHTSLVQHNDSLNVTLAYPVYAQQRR

PI3K γ = PI3K γ (Homo sapiens (Human), UniProt P48736); experiment: PI 3-Kinase (human) HTRF assay, p110γ; details: read-out: PI3K γ IC50
PI3K γ, sequence (P48736 whole entry): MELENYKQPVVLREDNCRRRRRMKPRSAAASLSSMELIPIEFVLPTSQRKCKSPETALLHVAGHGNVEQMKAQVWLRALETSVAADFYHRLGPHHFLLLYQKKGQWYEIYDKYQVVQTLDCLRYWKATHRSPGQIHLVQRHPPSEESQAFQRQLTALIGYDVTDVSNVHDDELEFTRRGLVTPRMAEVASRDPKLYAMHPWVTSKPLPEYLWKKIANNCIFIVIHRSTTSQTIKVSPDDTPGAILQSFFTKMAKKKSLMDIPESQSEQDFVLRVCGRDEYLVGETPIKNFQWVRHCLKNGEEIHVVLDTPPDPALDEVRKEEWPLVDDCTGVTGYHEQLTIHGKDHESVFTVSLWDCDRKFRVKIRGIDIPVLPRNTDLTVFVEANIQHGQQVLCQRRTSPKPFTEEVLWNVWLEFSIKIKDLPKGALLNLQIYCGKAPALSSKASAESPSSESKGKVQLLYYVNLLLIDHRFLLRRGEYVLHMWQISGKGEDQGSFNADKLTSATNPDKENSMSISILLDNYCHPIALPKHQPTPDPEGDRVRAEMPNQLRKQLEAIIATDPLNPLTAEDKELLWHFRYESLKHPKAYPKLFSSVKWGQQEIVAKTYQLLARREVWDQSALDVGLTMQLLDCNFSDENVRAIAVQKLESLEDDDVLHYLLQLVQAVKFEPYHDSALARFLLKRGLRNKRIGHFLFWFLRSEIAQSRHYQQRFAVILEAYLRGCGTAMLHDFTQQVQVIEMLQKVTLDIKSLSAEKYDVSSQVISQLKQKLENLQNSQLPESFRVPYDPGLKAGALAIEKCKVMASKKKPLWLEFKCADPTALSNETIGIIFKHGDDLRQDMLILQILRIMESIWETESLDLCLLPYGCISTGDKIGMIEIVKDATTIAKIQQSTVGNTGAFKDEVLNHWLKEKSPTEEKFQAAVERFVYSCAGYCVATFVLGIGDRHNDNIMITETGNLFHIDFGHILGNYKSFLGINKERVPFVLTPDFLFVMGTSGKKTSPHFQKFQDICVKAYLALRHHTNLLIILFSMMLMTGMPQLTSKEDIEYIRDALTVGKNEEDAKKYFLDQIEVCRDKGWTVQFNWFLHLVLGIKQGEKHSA

PI3K α, sequence (P42336 whole entry): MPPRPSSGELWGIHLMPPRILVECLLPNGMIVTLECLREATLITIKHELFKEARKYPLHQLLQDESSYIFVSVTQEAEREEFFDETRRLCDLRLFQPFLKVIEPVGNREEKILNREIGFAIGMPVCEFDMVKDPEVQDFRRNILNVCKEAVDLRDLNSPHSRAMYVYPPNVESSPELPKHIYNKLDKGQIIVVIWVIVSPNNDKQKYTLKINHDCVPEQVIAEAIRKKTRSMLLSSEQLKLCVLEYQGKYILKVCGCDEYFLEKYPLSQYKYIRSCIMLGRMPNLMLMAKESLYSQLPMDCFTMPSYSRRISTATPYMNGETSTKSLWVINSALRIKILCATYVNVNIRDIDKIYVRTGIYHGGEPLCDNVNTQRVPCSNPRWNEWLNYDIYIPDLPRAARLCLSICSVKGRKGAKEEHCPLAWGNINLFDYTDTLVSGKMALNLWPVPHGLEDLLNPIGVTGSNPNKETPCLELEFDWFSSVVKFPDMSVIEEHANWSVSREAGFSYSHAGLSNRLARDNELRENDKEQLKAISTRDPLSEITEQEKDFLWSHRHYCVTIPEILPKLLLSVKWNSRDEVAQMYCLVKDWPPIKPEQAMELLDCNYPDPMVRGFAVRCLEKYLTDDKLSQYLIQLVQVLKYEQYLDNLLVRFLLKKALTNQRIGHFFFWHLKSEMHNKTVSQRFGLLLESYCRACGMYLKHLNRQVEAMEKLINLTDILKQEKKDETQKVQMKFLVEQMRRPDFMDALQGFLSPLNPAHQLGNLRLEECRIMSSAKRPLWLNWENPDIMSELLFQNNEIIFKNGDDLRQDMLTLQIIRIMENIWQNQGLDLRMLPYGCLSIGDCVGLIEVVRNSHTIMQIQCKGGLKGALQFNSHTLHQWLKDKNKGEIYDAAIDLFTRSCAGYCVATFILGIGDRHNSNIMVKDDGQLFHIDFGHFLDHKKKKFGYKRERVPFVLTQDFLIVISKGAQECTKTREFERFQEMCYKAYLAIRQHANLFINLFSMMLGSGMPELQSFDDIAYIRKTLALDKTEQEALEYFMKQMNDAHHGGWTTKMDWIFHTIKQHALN
PI3K α, sequence (P27986 whole entry partner): as the sequence (P27986 whole entry partner) above
PI3K β, sequence (P42338 whole entry): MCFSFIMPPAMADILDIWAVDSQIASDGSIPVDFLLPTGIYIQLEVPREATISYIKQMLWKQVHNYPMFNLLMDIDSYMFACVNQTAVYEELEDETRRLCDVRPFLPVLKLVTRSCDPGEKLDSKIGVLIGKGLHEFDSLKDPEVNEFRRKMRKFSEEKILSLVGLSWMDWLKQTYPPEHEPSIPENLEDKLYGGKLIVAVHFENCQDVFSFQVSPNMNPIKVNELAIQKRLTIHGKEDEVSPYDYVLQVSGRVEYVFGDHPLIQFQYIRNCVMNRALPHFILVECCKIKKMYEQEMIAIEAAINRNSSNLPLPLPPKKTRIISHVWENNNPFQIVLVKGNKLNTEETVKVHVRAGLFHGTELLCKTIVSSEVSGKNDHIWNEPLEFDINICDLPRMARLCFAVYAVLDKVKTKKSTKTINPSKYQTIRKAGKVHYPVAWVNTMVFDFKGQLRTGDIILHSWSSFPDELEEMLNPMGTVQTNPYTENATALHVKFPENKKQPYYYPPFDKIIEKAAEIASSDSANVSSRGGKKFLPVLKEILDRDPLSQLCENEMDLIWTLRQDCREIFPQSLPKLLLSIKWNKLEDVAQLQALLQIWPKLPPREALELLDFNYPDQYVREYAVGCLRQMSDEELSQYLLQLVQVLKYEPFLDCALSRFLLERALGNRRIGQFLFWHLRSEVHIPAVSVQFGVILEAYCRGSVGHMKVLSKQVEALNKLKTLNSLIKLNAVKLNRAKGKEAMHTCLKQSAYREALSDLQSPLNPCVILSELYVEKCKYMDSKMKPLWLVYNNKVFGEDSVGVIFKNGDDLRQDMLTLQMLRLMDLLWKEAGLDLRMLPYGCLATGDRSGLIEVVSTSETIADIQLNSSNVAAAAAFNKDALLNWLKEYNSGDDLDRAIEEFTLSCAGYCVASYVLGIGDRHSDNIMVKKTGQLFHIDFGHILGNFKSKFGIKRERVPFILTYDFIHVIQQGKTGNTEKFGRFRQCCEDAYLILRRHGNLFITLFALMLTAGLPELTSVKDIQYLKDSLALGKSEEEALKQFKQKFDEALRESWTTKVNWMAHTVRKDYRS
PI3K β, sequence (P27986 whole entry partner): as the sequence (P27986 whole entry partner) above

pIC50 (PI3K α) | pIC50 (PI3K β) | pIC50 (PI3K δ) | pIC50 (PI3K γ) | SMILES
> 6.00 | < 5.00 | < 5.00 | < 5.00 | Nc1nc2cc(-c3ccc4ncc(-c5ccnc(N6CCOCC6)c5)nc4c3)ccc2o1
> 7.00 | > 7.00 | > 5.00 | > 6.00 | CCN1CCN(c2cnc3ccc(-c4ccc5oc(N)nc5c4)cc3n2)CC1
> 7.00 | > 7.00 | > 6.00 | > 6.00 | Nc1nc2cc(-c3ccc4ncc(N5CCN(CC6CC6)CC5)nc4c3)ccc2o1
> 7.00 | > 6.00 | > 5.00 | > 7.00 | CNC(=O)N1CCN(c2cnc3ccc(-c4ccc5oc(N)nc5c4)cc3n2)CC1
> 5.00 | < 5.00 | < 5.00 | < 5.00 | CN1CCN(C(=O)c2cnc3ccc(-c4ccc5oc(N)nc5c4)cc3n2)CC1
> 5.00 | < 5.00 | < 5.00 | < 5.00 | Nc1nc2cc(-c3ccc4ncc(C(=O)N5CCOCC5)nc4c3)ccc2o1
> 6.00 | > 5.00 | < 5.00 | > 5.00 | CN(CCN1CCOCC1)c1cnc2ccc(-c3ccc4oc(N)nc4c3)cc2n1
> 5.00 | < 5.00 | < 5.00 | < 5.00 | Nc1nc2cc(-c3ccc4ncc(-c5ccc(N6CCOCC6)nc5)nc4c3)ccc2o1
> 7.00 | > 6.00 | > 5.00 | < 5.00 | Nc1nc2cc(-c3ccc4ncc(N5CCC(N)CC5)nc4c3)ccc2o1
> 7.00 | > 7.00 | > 7.00 | > 6.00 | CN(C)C1CCN(c2cnc3ccc(-c4ccc5oc(N)nc5c4)cc3n2)CC1
> 7.00 | > 6.00 | > 5.00 | > 7.00 | CC1CN(c2cnc3ccc(-c4ccc5oc(N)nc5c4)cc3n2)CCO1 (stereo not shown)
> 7.00 | > 6.00 | > 5.00 | > 7.00 | Cc1nccn1-c1cnc2ccc(-c3ccc4oc(N)nc4c3)cc2n1
> 7.00 | < 5.00 | < 5.00 | > 5.00 | Nc1nc2cc(-c3ccc4ncc(N5CCCCC5)nc4c3)ccc2o1
> 7.00 | > 6.00 | > 6.00 | > 7.00 | Nc1nc2cc(-c3ccc4ncc(N5CCCC5)nc4c3)ccc2o1
> 7.00 | < 5.00 | < 5.00 | > 6.00 | Cc1cn(-c2cnc3ccc(-c4ccc5oc(N)nc5c4)cc3n2)cn1
> 7.00 | > 7.00 | > 6.00 | > 6.00 | C[C@H]1CN(c2cnc3ccc(-c4ccc5oc(N)nc5c4)cc3n2)CCN1
> 7.00 | > 6.00 | > 5.00 | > 5.00 | C[C@@H]1CN(c2cnc3ccc(-c4ccc5oc(N)nc5c4)cc3n2)CCN1
> 7.00 | > 5.00 | > 6.00 | > 7.00 | CS(=O)(=O)CCN1CCC(Nc2cnc3ccc(-c4ccc5oc(N)nc5c4)cc3n2)CC1
> 7.00 | > 6.00 | > 6.00 | > 6.00 | CC(C)(C)N1CCN(c2cnc3ccc(-c4ccc5oc(N)nc5c4)cc3n2)CC1
> 7.00 | > 6.00 | > 6.00 | > 6.00 | NCC(=O)N1CCN(c2cnc3ccc(-c4ccc5oc(N)nc5c4)cc3n2)CC1
> 7.00 | > 6.00 | > 5.00 | > 7.00 | COC(=O)N1CCN(c2cnc3ccc(-c4ccc5oc(N)nc5c4)cc3n2)CC1
> 6.00 | > 5.00 | < 5.00 | > 7.00 | Nc1nc2cc(-c3ccc4ncc(-c5ccccn5)nc4c3)ccc2o1
> 7.00 | > 6.00 | < 5.00 | > 7.00 | Nc1nc2cc(-c3ccc4ncc(N5CCOCC5)nc4n3)ccc2o1
> 6.00 | > 6.00 | > 5.00 | > 5.00 | CN1CCN(c2cnc3ccc(-c4ccc5oc(N)nc5c4)nc3n2)CC1
< 5.00 | < 5.00 | < 5.00 | < 5.00 | Nc1nc2cc(-c3ccc4nc(N5CCOCC5)cnc4n3)ccc2o1
> 7.00 | > 5.00 | > 5.00 | > 6.00 | Nc1nc2cc(-c3ccc4ncc(N5CCC(O)CC5)cc4n3)ccc2o1
> 5.00 | < 5.00 | < 5.00 | > 5.00 | Nc1nc2cc(-c3cnc4ccc(N5CCOCC5)nc4c3)ccc2o1
> 5.00 | > 5.00 | < 5.00 | < 5.00 | CN1CCN(c2ccc3ncc(-c4ccc5oc(N)nc5c4)cc3n2)CC1
> 5.00 | < 5.00 | < 5.00 | > 5.00 | CC(C)(N)C(=O)N1CCN(c2ccc3ncc(-c4ccc5oc(N)nc5c4)cc3n2)CC1

Second part, the compound before the results:

SMILES | pIC50 (PI3K α) | pIC50 (PI3K β) | pIC50 (PI3K δ) | pIC50 (PI3K γ)
CN1CCC(N(C)c2cnc3ccc(-c4ccc5oc(N)nc5c4)cc3n2)CC1 | > 7.00 | > 5.00 | > 6.00 | > 5.00
CN1CCC(N(C)c2ncnc3ccc(-c4ccc5oc(N)nc5c4)cc23)CC1 | > 7.00 | > 7.00 | > 6.00 | > 7.00
CN1CCC(NC(=O)c2cnc3ccc(-c4ccc5oc(N)nc5c4)cn23)CC1 | > 7.00 | > 6.00 | > 7.00 | > 6.00
CC(C)N1CCN(C(=O)c2cnc3ccc(-c4ccc5oc(N)nc5c4)cn23)CC1 | > 7.00 | > 5.00 | < 5.00 | < 5.00
Nc1nc2cc(-c3ccc4ncc(C(=O)N5CCN(CC6CC6)CC5)n4c3)ccc2o1 | > 6.00 | > 5.00 | > 5.00 | > 5.00
Nc1nc2cc(-c3ccc4ncc(C(=O)N5CCC(O)CC5)n4c3)ccc2o1 | > 6.00 | < 5.00 | < 5.00 | > 5.00
Nc1nc2cc(-c3ccc4ncc(C(=O)N5CCC(N6CCOCC6)CC5)n4c3)ccc2o1 | > 6.00 | > 5.00 | > 5.00 | > 5.00
CN1CCC(N(C)C(=O)c2cnc3ccc(-c4ccc5oc(N)nc5c4)cn23)CC1 | > 6.00 | > 5.00 | > 5.00 | < 5.00
Nc1nc2cc(-c3ccc4ncc(-c5ccccc5)nc4c3)ccc2o1 | > 6.00 | < 5.00 | < 5.00 | < 5.00
CCn1cnc2ccc(-c3ccc4oc(N)nc4c3)cc2c1=O | > 7.00 | > 5.00 | > 5.00 | > 7.00
Nc1nc2cc(-c3ccc4ncn(CCO)c(=O)c4c3)ccc2o1 | > 7.00 | > 5.00 | < 5.00 | > 6.00
Cc1ncccc1-c1cnc2ccc(-c3ccc4oc(N)nc4c3)cc2n1 | > 6.00 | < 5.00 | < 5.00 | < 5.00
Nc1nc2cc(-c3ccc4ncc(C(=O)N5CCCC5)n4c3)ccc2o1 | > 7.00 | > 5.00 | > 6.00 | > 7.00
CCNC(=O)c1cnc2ccc(-c3ccc4oc(N)nc4c3)cn12 | > 7.00 | > 6.00 | > 6.00 | > 7.00
Nc1nc2cc(-c3ccc4ncc(C(=O)NCCO)n4c3)ccc2o1 | > 7.00 | > 6.00 | > 6.00 | > 7.00
Nc1nc2cc(-c3ccc4ncc(C(=O)Nc5cccnc5)n4c3)ccc2o1 | > 7.00 | < 5.00 | > 6.00 | > 7.00
CC(C)(C)N1CCN(C(=O)c2cnc3ccc(-c4ccc5oc(N)nc5c4)cn23)CC1 | > 7.00 | > 5.00 | > 5.00 | > 5.00
Cc1ccc(-c2cnc3ccc(-c4ccc5oc(N)nc5c4)cc3n2)cn1 | > 7.00 | < 5.00 | < 5.00 | > 7.00
Nc1nc2cc(-c3ccc4ncc(-c5cccnc5)nc4n3)ccc2o1 | > 6.00 | > 5.00 | < 5.00 | > 6.00
CCOC(=O)N1CCN(c2cnc3ccc(-c4ccc5oc(N)nc5c4)nc3n2)CC1 | > 7.00 | > 6.00 | > 6.00 | > 6.00
CS(=O)(=O)N1CCN(C2CN(c3cnc4ccc(-c5ccc6oc(N)nc6c5)nc4n3)C2)CC1 | > 7.00 | < 5.00 | > 5.00 | > 6.00
C[C@@H]1COCCN1C1CN(c2cnc3ccc(-c4ccc5oc(N)nc5c4)nc3n2)C1 | > 5.00 | < 5.00 | < 5.00 | > 5.00
Nc1nc2cc(-c3ccc4ncc(N5CC(N6C7CCC6COC7)C5)nc4n3)ccc2o1 | > 5.00 | < 5.00 | < 5.00 | < 5.00
Nc1nc2cc(-c3ccc4ncc(N5CC6CCC(C5)O6)cc4n3)ccc2o1 | > 7.00 | < 5.00 | < 5.00 | > 7.00
Nc1nc2cc(-c3ccc4ncc(N5CC(N6C7CCC6COC7)C5)cc4n3)ccc2o1 | > 7.00 | < 5.00 | > 5.00 | > 6.00
Nc1nc2cc(-c3ccc4ncc(N5CC(N6CCN(C7CC7)CC6)C5)nc4n3)ccc2o1 | > 7.00 | > 5.00 | > 5.00 | > 5.00
Nc1nc2cc(-c3ccc4ncc(N5CC(N6CCN(C7CC7)CC6)C5)cc4n3)ccc2o1 | > 7.00 | > 5.00 | > 5.00 | > 6.00
CC(C)N1CCN(C2CN(c3cnc4ccc(-c5ccc6oc(N)nc6c5)nc4n3)C2)CC1 | > 5.00 | < 5.00 | < 5.00 | < 5.00
Nc1nc2cc(-c3cnc4ccc(N5C6CCC5COC6)nc4c3)ccc2o1 | > 5.00 | < 5.00 | < 5.00 | > 5.00
